According to patent US6177438A, “Morphinan derivatives and pharmaceutical use thereof” (priority 1993, dated 2001):

How the values were obtained:
κ receptor [1] = biological target: T1, κ receptor (Mus musculus, UniProt P33534); experiment: Opioid activity test using an extracted mouse vas deferens preparation, Ke with norBNI; parameters: species or system male ddy mouse; settings: for receptor selectivity of agonist (κ): in words; for Ke, norBNI: κ, norBNI added
T1 construct: from tissue; host or cells: mouse (male ddy) vas deferens
T1 sequence (P33534 whole entry): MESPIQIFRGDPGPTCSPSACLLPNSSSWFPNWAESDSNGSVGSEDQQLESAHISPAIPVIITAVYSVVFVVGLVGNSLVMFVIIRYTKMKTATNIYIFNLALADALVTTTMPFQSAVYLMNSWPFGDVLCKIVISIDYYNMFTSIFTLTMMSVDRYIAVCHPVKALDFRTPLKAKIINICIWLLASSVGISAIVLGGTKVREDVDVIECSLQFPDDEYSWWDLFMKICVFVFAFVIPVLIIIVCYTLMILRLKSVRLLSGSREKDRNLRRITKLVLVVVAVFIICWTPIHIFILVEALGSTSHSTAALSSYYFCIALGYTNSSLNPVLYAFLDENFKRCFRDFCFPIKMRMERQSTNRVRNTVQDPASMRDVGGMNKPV

[2] = tested on: acetic acid-induced writhing in ddy mice; experiment: animal or person; format: in vivo, 5 week old ddy mice; settings: Mus musculus, sc, s.c. 15 minutes before acetic acid, read-out: ED50
Description: 5 week old ddy mice were used in this test. After intraperitoneal administration of 0.1 ml of 0.6% aqueous acetic acid per 10 g of body weight, the number of writhing reactions that occurred in 10 minutes starting 10 minutes after administration was evaluated for the indicator. The test drug was administered subcutaneously into the backs of the animals 15 minutes before administration of acetic acid.

[3] = tested on: extracted guinea pig ileum preparation; experiment: Opioid activity test using an extracted guinea pig ileum preparation (suppression of electrically induced contractions); parameters: species or system male Hartley guinea pig; settings: Cavia porcellus, electrical stimulus 0.1 Hz, 37° C.
Description: (§1) A male Hartley guinea pig was used in this test. After sacrificing the guinea pig and extracting the ileum, the lumen was washed with nutrient solution and only the longitudinal muscle was isolated. This longitudinal muscle was suspended in a Magnus tube filled with Krebes-Henseleit solution (NaCl 118 mM; KCl 4.7 mM; CaCl2 2.5 mM; KH2 PO4 1.2 mM; NaHCO3 25 mM; MgSO4 1.2 mM; Glucose 10 mM) warmed to 37° C. and ventilated with 5% carbon dioxide and 95% oxygen. Electrical stimulus was performed at 0.1 Hz for 5.0 ms by means of ring-shaped platinum electrodes located above and below. Tissue contractions were recorded on a polygraph using an isometric transducer.
(§2) After adequately washing with nutrient solution and the contraction reaction stabilized, the μ agonist, naloxone, or the κ agonist, norBNI, was added after which the test compound was again cumulatively added after roughly 20 minutes. The Ke value was calculated using the following calculation formula from the difference in the efficacies of both agonists.

[4] = tested on: cultured nerve cells (cerebral cortex); settings: 10 mM glutamic acid, 24 hours
μ receptor [5] = experiment: Opioid activity test using an extracted guinea pig ileum preparation, Ke with naloxone; parameters: species or system male Hartley guinea pig; settings: naloxone added
Description: as §1, §2
(§3) Ke=[Conc. of added agonist]/(IC50 ratio-1)
(§4) IC50 ratio=IC50 in the presence of agonist/IC50 in the absence of agonist

κ receptor [6] = biological target: T2, κ receptor (Cavia porcellus, UniProt P41144); experiment: Opioid activity test using an extracted guinea pig ileum preparation, Ke with norBNI; parameters: species or system male Hartley guinea pig; settings: norBNI added
T2 construct: After sacrificing the guinea pig and extracting the ileum; from tissue; host or cells: guinea pig (male Hartley) ileum, longitudinal muscle
T2 sequence (P41144 whole entry): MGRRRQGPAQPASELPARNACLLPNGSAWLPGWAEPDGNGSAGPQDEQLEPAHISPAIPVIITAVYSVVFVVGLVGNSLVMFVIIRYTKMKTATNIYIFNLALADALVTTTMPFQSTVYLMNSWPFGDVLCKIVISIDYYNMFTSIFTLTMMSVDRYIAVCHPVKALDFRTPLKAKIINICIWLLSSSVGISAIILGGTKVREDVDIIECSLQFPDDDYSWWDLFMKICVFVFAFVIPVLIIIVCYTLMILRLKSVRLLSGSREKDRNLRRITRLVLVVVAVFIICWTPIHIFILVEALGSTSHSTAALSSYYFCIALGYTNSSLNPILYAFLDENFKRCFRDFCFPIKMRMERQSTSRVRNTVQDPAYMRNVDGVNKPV
Description: as §1, §2, §3, §4

[7] = Diuretic action (urine output for 5 hours after physiological saline loading in rats); format: in vivo, male Wistar rats; settings: Rattus norvegicus, sc, 5 hours after saline 20 ml/kg p.o.; for ED (200% urine output): dose giving urine output of 200 (non-dosed group = 100); for ED (500% urine output): dose giving urine output of 500 (non-dosed group = 100)
Procedure, shortened: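 Male Wistar rats (7-8 weeks), water withheld 1 h, bladder emptied, drug given subcutaneously; 30 min later 20 ml/kg saline orally. Urine collected 5 h after saline loading in metabolic cages; ED200 and ED500 are doses giving urine output of 200 and 500 relative to non-dosed group at 100.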

μ receptor [8] = biological target: T3, μ receptor (Mus musculus, UniProt P42866); experiment: Opioid activity test using an extracted mouse vas deferens preparation, Ke with naloxone; parameters: species or system male ddy mouse; settings: naloxone added
T3 construct: naloxone as mu antagonist (printed 'agonist')
T3 sequence (P42866 whole entry): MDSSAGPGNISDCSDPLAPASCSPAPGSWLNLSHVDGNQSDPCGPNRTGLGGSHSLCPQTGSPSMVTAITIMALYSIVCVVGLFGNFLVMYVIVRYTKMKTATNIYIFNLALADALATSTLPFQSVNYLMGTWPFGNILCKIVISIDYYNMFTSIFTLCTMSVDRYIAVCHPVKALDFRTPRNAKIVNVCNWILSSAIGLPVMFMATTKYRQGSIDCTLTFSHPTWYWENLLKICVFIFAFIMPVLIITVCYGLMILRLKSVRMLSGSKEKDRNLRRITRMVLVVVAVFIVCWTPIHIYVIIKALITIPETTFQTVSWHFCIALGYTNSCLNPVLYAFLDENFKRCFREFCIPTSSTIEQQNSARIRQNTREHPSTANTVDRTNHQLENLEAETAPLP

[9] = tested on: extracted mouse vas deferens preparation; experiment: Opioid activity test using an extracted mouse vas deferens preparation (suppression of electrically induced contractions); parameters: species or system male ddy mouse; settings: electrical stimulus 0.1 Hz, 37° C.
Procedure, shortened: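 Male ddY mouse vas deferens in Krebs-Henseleit at 37° C, 5% CO2/95% O2, field-stimulated at 0.1 Hz, 5.0 ms; isometric contractions recorded. After adding naloxone, NTI or norBNI, test compound was added cumulatively after ~20 min; Ke derived from the difference in agonist efficacies.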

δ receptor = biological target: T4, δ receptor (Mus musculus, UniProt P32300); parameters: species or system male ddy mouse; settings: mouse vas deferens, δ, NTI added
T4 construct: The vas deferens extracted from the animal was suspended in a Magnus tube; from tissue; host or cells: mouse (male ddy) vas deferens
T4 sequence (P32300 whole entry): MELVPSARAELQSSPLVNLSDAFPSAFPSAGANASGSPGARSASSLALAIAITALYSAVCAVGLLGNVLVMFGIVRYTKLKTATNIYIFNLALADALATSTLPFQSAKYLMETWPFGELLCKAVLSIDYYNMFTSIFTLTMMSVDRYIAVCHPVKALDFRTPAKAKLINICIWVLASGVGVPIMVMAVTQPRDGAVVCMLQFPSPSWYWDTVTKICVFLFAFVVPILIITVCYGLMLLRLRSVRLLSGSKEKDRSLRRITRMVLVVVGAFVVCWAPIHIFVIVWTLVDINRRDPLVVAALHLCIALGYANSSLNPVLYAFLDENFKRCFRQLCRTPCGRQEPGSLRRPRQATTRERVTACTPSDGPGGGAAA

[10] = tested on: cultured nerve cells (cerebral cortex); experiment: cells; settings: Rattus norvegicus, Cerebral cortex neuron, 24 h, read-out: ED50 (protection against glutamic acid toxicity)
[11] = tested on: nerve cells in the region of the hippocampus CA1; experiment: Delayed neuronal death protective action (gerbil transient ischemia model, hippocampus CA1 nerve cell count); format: in vivo, gerbils; settings: s.c.; for No. of Residual Nerve Cells: 1 hour before ischemia, 1 week after ligation
Description: Those compounds that provide protection from and suppress delayed neuronal death described in Example 238 are considered to be promising as preventive and therapeutic agents for ischemic brain disorders, brain nerve cell disorders and dementia, which are problems that the present invention is attempting to solve. The pharmacological activity of the compounds of the present invention was evaluated in the manner below using gerbils for the animal model.
A midline incision was made in gerbils having body weights of 50-70 g under ether anesthesia. Blood flow through the carotid arteries on both sides was interrupted to create an ischemic state by ligating the vessels for 5 minutes. The test compound was administered subcutaneously either 30 minutes or 1 hour prior to ligation ischemia, and the rectal temperature of the animals was controlled to 37±2° C. using a heating pad or heater starting 5 minutes before to 30 minutes after ligation ischemia. 1 week after ligation, 4% neutral buffered formalin was perfused from the heart throughout the body followed by extraction of the brain. After post-fixing the extracted brain in the same solution, the tissue was prepared into sections after embedding in paraffin. The sections were stained with hematoxylin and eosin stain, and the number of nerve cells in the region of the hippocampus CA1 over a width of 1 mm to the left and right was counted. The total number of nerve cells on the right and left sides was then used for evaluation.

[12] = tested on: guinea pig respiratory tract; experiment: Antitussive action using the guinea pig respiratory tract stimulation method; format: in vivo, male Hartley guinea pigs; settings: for No. of Animals in which Coughing was Suppressed/No. of Animals Tested: s.c.
Description: Evaluation of Antitussive Action Using the Guinea Pig Respiratory Tract Stimulation Method
Male Hartley guinea pigs having body weights of 330-380 g were used in this test in groups of 5 animals each. The animals were immobilized in the supine position under mild anesthesia by intraperitoneal administration of 15 mg/kg of sodium pentobarbital. An incision was made in the necks of the animals to expose the respiratory tract. A small hole was opened in the exposed respiratory tract, and stimulating hairs were inserted to a depth of roughly 3 cm and at an angle of 30 degrees to the respiratory tract through the opened hole to provide a stimulus to the inner wall of the respiratory tract. The animals were then examined for the presence of coughing. […] The test drug was administered subcutaneously, and stimuli were provided two times each 15, 30, 60 and 120 minutes after administration.

Row | Compound | receptor selectivity of agonist (κ) (κ receptor [1]) | Ke, norBNI (κ receptor [1]) [nM] | ED50 [2] [mg/kg] | Protective action against cytotoxicity caused by glutamic acid (in words) [4] | ED (200% urine output) [7] [mg/kg] | ED (500% urine output) [7] [mg/kg] | IC50 [9] [nM] | Ke, NTI (δ receptor) [nM] | EC50 [10] [nM] | further results
1 | CN(C(=O)Cc1ccc(Cl)c(Cl)c1)[C@H]1CC[C@@]2(O)[C@H]3Cc4ccc(O)c5c4[C@@]2(CCN3CC2CC2)[C@H]1O5 [Compound 1, 17-cyclopropylmethyl-4,5α-epoxy-3,14β-dihydroxy-6α-(N-methyl-3,4-dichlorophenylacetamido)morphinan] | selective agonists for κ receptors | 0.548 | 0.017 | clearly demonstrated action that protects nerve cells from cytotoxicity caused by glutamic acid | 0.0027 | 0.0457 | 0.395 | 17.3 | 500 | IC50 [3]: 0.026 nM; Ke, Naloxone (μ receptor [5]): 650 nM; Ke, norBNI (κ receptor [6]): 0.16 nM; Ke, Naloxone (μ receptor [8]): 53 nM
2 | CN(C(=O)/C=C/c1cccc(C(F)(F)F)c1)[C@@H]1CC[C@@]2(O)[C@H]3Cc4ccc(O)c5c4[C@@]2(CCN3CC2CC2)[C@H]1O5 [Compound 60, 17-cyclopropylmethyl-3,14β-dihydroxy-4,5α-epoxy-6β-(N-methyl-3-trifluoromethylcinnamamido)morphinan.cndot.tartrate] | selective agonists for κ receptors | 3.20 | 0.0046 | clearly demonstrated action that protects nerve cells from cytotoxicity caused by glutamic acid | 0.0143 | 1.13 | 0.468 | 291 | 1310 | No. of Residual Nerve Cells ([11]; 0.03 mg/kg): 52.1 ± 14.8; No. of Residual Nerve Cells ([11]; 0.3 mg/kg): 148.3 ± 28.5; No. of Residual Nerve Cells ([11]; 3 mg/kg): 284.5 ± 7.1; Suppression of defluxion of brain nerve cells caused by ischemia / cerebro-neuroprotective activity (in words) ([11]; gerbils): significantly suppress defluxion of brain nerve cells caused by ischemia; ED50 ([12]; Cavia porcellus, sc): 0.0026 mg/kg; No. of Animals in which Coughing was Suppressed/No. of Animals Tested ([12]; 1 μg/kg): 1/5; No. of Animals in which Coughing was Suppressed/No. of Animals Tested ([12]; 3 μg/kg): 3/5; No. of Animals in which Coughing was Suppressed/No. of Animals Tested ([12]; 30 μg/kg): 5/5
